Columns and labels:
[1] = system: mouse colon cancer cell line C26; experiment: Tumor treatment effect in C26-transplanted BALB/c mice; type: in vivo; settings: for antitumor effect (tumor volume): i.v., days 3, 7, 10, 14
Method: Mouse colon cancer cell line C26-transplanted BALB/c mice (6-week-old) were divided into 8 groups of 5 each (groups 1 to 8), and each group was intravenously administered 200 μL each of CD-enclosing crosslinked vesicles (0.5 U/mL) prepared by the procedure described above, 5-FC, 5-FU or PBS, at the timing shown in Table 9 below. The 5-FC and 5-FU were prepared for 10 mg/kg (body weight) or 80 mg/kg (body weight), based on the mouse body weight. […] The tumor volume was measured by measuring the long diameter and short diameter of the tumor using a caliper, and the calculation was performed by the following formula. V=(a^2×b)/2 V: Tumor volume, a: long diameter, b: short diameter

A549 cells = experiment: Cytotoxic effect (Cell Counting Kit-8); type: cell-based, human; settings: 48 and 72 hours, gemcitabine concentration 0.5 μg/mL or matched carrier amount
Method: Specifically, the GEM-adsorbed sulfonated MSN-encapsulating vesicles obtained by the procedure described above (sample No. 1), the sulfonated MSN-encapsulating vesicles used as material for the foregoing (Example II-3A) (sample No. 2) and the vacant vesicles used as material for the foregoing (Example II-1) (sample No. 5) were each labeled with Cy3 (labeling 25% of the number of anionic polymers), and then A549 cells were added to each well of a plate having a density of 2.2×10^3 cells/well in RPMI-1640 medium, prior to culturing at 37° C. The amount of GEM-adsorbed sulfonated MSN-encapsulating vesicles (sample No. 1) added was an amount for a gemcitabine concentration of 0.5 μg/mL in the medium, the amounts of sulfonated MSN-encapsulating vesicles (sample No. 2) and vacant vesicles (sample No. 5) added were adjusted to be the same as the amount of GEM-adsorbed sulfonated MSN-encapsulating vesicles (sample No. 1) in terms of MSN-encapsulating vesicles. […]
Also, the cytotoxic effects of each of the samples (sample Nos. 1 to 6) at 48 hours and 72 hours after the start of culturing were evaluated by the following procedure. Specifically, using a Cell Counting Kit-8 (product of Dojindo) according to the manufacturer's instructions, reagent was added to each well and culturing was conducted for 1 hour, after which the viable cell count was measured. […]

[2] = system: human pulmonary carcinoma cell line A549; experiment: Tumor treatment effect in A549-transplanted BALB/c nude mice; type: in vivo, mouse; settings: 200 μL i.v.; gemcitabine 5 mg/kg or matched carrier amount; 28 days; vs PBS group
Method: Human pulmonary carcinoma cell line A549-transplanted BALB/c nude mice (7-week-old, for each sample) were divided into 7 groups of 5 each, among which 6 of the groups were intravenously administered samples 1 to 6 (Groups 1 to 6), respectively. The dose of each sample was 200 μL, and the concentration of each sample of the GEM-adsorbed sulfonated MSN-encapsulating vesicles (sample No. 1), the GEM-adsorbed sulfonated MSN (sample No. 3) and the gemcitabine alone (sample No. 6) was adjusted for a gemcitabine concentration of 5 mg/kg of mouse body weight, while the amounts of sulfonated MSN-encapsulating vesicles (sample No. 2) and vacant vesicles (sample No. 5) added were adjusted to be the same as the amount of GEM-adsorbed sulfonated MSN-encapsulating vesicles (sample No. 1) in terms of MSN-encapsulating vesicles, and the amount of sulfonated MSN (sample No. 4) added was adjusted to be the same as the amount of GEM-adsorbed sulfonated MSN (sample No. 3) in terms of MSN. To the remaining group there was administered 200 μL of PBS (Group 7). The tumor volumes were measured for 28 days after administration. Tumor volume was measured by measuring the long diameter and short diameter of the tumor using a caliper, and calculation was performed by the following formula. V=(a^2×b)/2 V: Tumor volume, a: long diameter, b: short diameter

C26 cells = experiment: Cytotoxic effect (Cell Counting Kit-8); type: cell-based, murine; settings: 48 and 72 hours, gemcitabine concentration 0.1 μg/mL or matched carrier amount
Method: Also, the cytotoxic effects of each of the samples (sample Nos. 1 to 6) at 48 hours and 72 hours after the start of culturing were evaluated by the following procedure. Specifically, using a Cell Counting Kit-8 (product of Dojindo) according to the manufacturer's instructions, reagent was added to each well and culturing was conducted for 1 hour, after which the viable cell count was measured. The results after 48 hours of culturing are shown in FIG. 34(a), and the results after 72 hours of culturing are shown in FIG. 34(b).
In addition, using C26 cells (a murine colon adenocarcinoma cell line) instead of A549 cells, the cell uptake property and cytotoxic effect were evaluated by the same procedure described above, except for the points mentioned below. […]

[3] = Viscosity of FITC-Dex solutions (rotating rheometer); type: physicochemical
Method: The viscosity was measured using a rotating rheometer (Physica MCR302, product of Anton Paar).

[4] = dose of 10 mg/kg (5-FC or 5-FU)
[5] = dose of 80 mg/kg (5-FC or 5-FU)

| Compound | antitumor effect (tumor volume) [1, 4] | antitumor effect (tumor volume) [1, 5] | viscosity ([3]; concentration 10 mg/mL) [Pa·s] | viscosity ([3]; concentration 4 mg/mL) [Pa·s] | also measured |
| --- | --- | --- | --- | --- | --- |
| Nc1nc(=O)[nH]cc1F [Example 5-FC, 5-fluorocytosine] | no significant antitumor effect or toxicity | no significant antitumor effect or toxicity | – | – | – |
| O=c1[nH]cc(F)c(=O)[nH]1 [Example 5-FU, 5-fluorouracil] | very weak antitumor effect | antitumor effect that shrunk the tumor | – | – | individuals died by the 28th day after administration ([1]; dose of 10 mg/kg, 5 mice per group): 3; survival ([1]; dose of 80 mg/kg, 5 mice per group, up to 28 days): all of the individuals died by the 17th day |
| Nc1ccn([C@@H]2O[C@H](CO)[C@@H](O)C2(F)F)c(=O)n1 [gemcitabine alone, Gemcitabine] | – | – | – | – | cytotoxic effect (viable cell count) (A549 cells): powerful cytotoxic effect; antitumor effect (tumor volume) [2]: no significant antitumor effect was seen; cytotoxic effect (viable cell count) (C26 cells): powerful cytotoxic effect |
| fluorescein isothiocyanate-dextran [FITC-Dex 4000] | – | – | 0.0097 | – | – |
| fluorescein isothiocyanate-dextran [FITC-Dex 10000] | – | – | 0.1271 | 0.0504 | – |
| fluorescein isothiocyanate-dextran [FITC-Dex 40000] | – | – | 0.1377 | 0.0513 | viscosity ([3]; concentration 50 mg/mL): 0.5481 Pa·s |

Reference: US10322092B2, “Substance-containing vesicle, and production method therefor” (JAPAN SCIENCE AND TECHNOLOGY AGENCY, priority 2013, dated 2019)
